From US20080058345A1, “Combination Therapy with Mecamylamine for the Treatment of Mood Disorders” (priority 2004, published 2008)

Test system: individuals with major depression who are partial responders (based on HAM-D scores) to selective serotonin reuptake inhibitors
Experiment: 8-week clinical trial of mecamylamine plus SSRI antidepressant versus placebo plus antidepressant
Assay type: in vivo, human
Procedure: The treatment of depressive symptoms in individuals with major depression who are partial responders (based on HAM-D scores) to selective serotonin reuptake inhibitors (e.g., fluoxetine, sertraline, citalopram, paroxetine, fluvoxamine) was assessed.
Subjects (n=13) were randomly assigned to one of two groups, designated mecamylamine or MEC and Placebo, respectively, for an 8-week clinical trial. Individuals in the MEC group received mecamylamine plus an antidepressant and those in the placebo group received placebo plus an antidepressant Eleven subjects (n=6 randomized to MEC, n=5 to placebo) have completed this 8-week clinical trial and results are presented for those individuals. Two subjects are currently enrolled in the protocol. No clinical or demographic differences have been found between subjects randomized to MEC versus Placebo (Table). […] These preliminary results support our primary hypothesis that central nAChR antagonism augments SSRI-treated refractory major depression.

## CNC1(C)C2CCC(C2)C1(C)C (stereo not shown) [MEC, Bicyclo(2.2.1)heptan-2-amine, N,2,3,3-tetramethyl-]
8-week trial, MEC plus antidepressant versus placebo plus antidepressant
  difference between MEC and Placebo groups on any adverse events: no significant differences
8-week trial, MEC plus antidepressant, placebo 1/5, p=0.06
  adverse event: report of decreased libido (subjects reporting): 4/5
8-week trial, MEC plus antidepressant, placebo 3/5, p=0.11
  adverse event: constipation (subjects reporting): 5/6
End of 8-week trial, MEC plus antidepressant, n=6 completers, placebo 0/5, p=0.02
  subjects classified as responders, as assessed by a 50% reduction in HAM-D scores: Four out of six
